# Tests used:
# Assay in all cases: Virucidal activity, quantitative suspension test DIN EN 14476
# Type in all cases: cell-based
# [1] = tested on: Influenza virus (H1N1)
# [2] = tested on: Human respiratory syncytial virus (HRSV)
# [3] = tested on: Coronavirus (MHV-3)
# Experimental: Testing was conducted over a period of 1 to 10 minutes. Activity against the following viruses was determined: • Coronavirus (MHV-3) • Influenza virus (H1N1) • Herpes simplex virus (HV) • Human respiratory syncytial virus (HRSV)
# In this context (+) means that more than 99.99% of all viruses were inactivated; this is equivalent to a reduction factor of 10,000.
# [4] = tested on: Herpes simplex virus (HV)
# [5] = 33 wt.-percent in water, 10 min
# [6] = 0.1 wt.-percent in water, 1 min
# [7] = 0.1 wt.-percent in water, 10 min
# [8] = 10 wt.-percent in water, 10 min
Compound,"Virucidal activity H1N1 ([1]; 33 wt.-percent in water, 1 min)","Virucidal activity HRSV ([2]; 33 wt.-percent in water, 1 min)","Virucidal activity MHV-3 ([3]; 33 wt.-percent in water, 1 min)","Virucidal activity HV ([4]; 33 wt.-percent in water, 1 min)","Virucidal activity H1N1 [1, 5]","Virucidal activity HRSV [2, 5]","Virucidal activity MHV-3 [3, 5]","Virucidal activity HV [4, 5]","Virucidal activity H1N1 [1, 6]","Virucidal activity H1N1 [1, 7]","Virucidal activity H1N1 ([1]; 1 wt.-percent in water, 1 min)","Virucidal activity H1N1 ([1]; 1 wt.-percent in water, 10 min)","Virucidal activity H1N1 ([1]; 10 wt.-percent in water, 1 min)","Virucidal activity H1N1 [1, 8]","Virucidal activity HRSV [2, 6]","Virucidal activity HRSV [2, 7]","Virucidal activity HRSV ([2]; 1 wt.-percent in water, 1 min)","Virucidal activity HRSV ([2]; 1 wt.-percent in water, 10 min)","Virucidal activity HRSV ([2]; 10 wt.-percent in water, 1 min)","Virucidal activity HRSV [2, 8]",also measured
"CCCCC(O)CO (centres unmarked) [1,2-hexanediol]","(+) ((+) means that more than 99.99% of all viruses were inactivated; this is equivalent to a reduction factor of 10,000)","(+) ((+) means that more than 99.99% of all viruses were inactivated; this is equivalent to a reduction factor of 10,000)","(+) ((+) means that more than 99.99% of all viruses were inactivated; this is equivalent to a reduction factor of 10,000)","(+) ((+) means that more than 99.99% of all viruses were inactivated; this is equivalent to a reduction factor of 10,000)",,,,,,,,,,,,,,,,,
"CCCC(O)CO (centres unmarked) [1,2-pentanediol]","(+) ((+) means that more than 99.99% of all viruses were inactivated; this is equivalent to a reduction factor of 10,000)","(+) ((+) means that more than 99.99% of all viruses were inactivated; this is equivalent to a reduction factor of 10,000)","(+) ((+) means that more than 99.99% of all viruses were inactivated; this is equivalent to a reduction factor of 10,000)","(+) ((+) means that more than 99.99% of all viruses were inactivated; this is equivalent to a reduction factor of 10,000)","(+) ((+) means that more than 99.99% of all viruses were inactivated; this is equivalent to a reduction factor of 10,000)","(+) ((+) means that more than 99.99% of all viruses were inactivated; this is equivalent to a reduction factor of 10,000)","(+) ((+) means that more than 99.99% of all viruses were inactivated; this is equivalent to a reduction factor of 10,000)","(+) ((+) means that more than 99.99% of all viruses were inactivated; this is equivalent to a reduction factor of 10,000)",,,,,,,,,,,,,"Virucidal activity H1N1 ([1]; 33 wt.-percent in water, 5 min): (+) ((+) means that more than 99.99% of all viruses were inactivated; this is equivalent to a reduction factor of 10,000); Virucidal activity HRSV ([2]; 33 wt.-percent in water, 5 min): (+) ((+) means that more than 99.99% of all viruses were inactivated; this is equivalent to a reduction factor of 10,000); Virucidal activity MHV-3 ([3]; 33 wt.-percent in water, 5 min): (+) ((+) means that more than 99.99% of all viruses were inactivated; this is equivalent to a reduction factor of 10,000); Virucidal activity HV ([4]; 33 wt.-percent in water, 5 min): (+) ((+) means that more than 99.99% of all viruses were inactivated; this is equivalent to a reduction factor of 10,000)"
Cc1cc(O)ccc1C(C)C [4-isopropyl-3-methylphenol],,,,,,,,,"(+) ((+) means that more than 99.99% of all viruses were inactivated; this is equivalent to a reduction factor of 10,000)","(+) ((+) means that more than 99.99% of all viruses were inactivated; this is equivalent to a reduction factor of 10,000)","(+) ((+) means that more than 99.99% of all viruses were inactivated; this is equivalent to a reduction factor of 10,000)","(+) ((+) means that more than 99.99% of all viruses were inactivated; this is equivalent to a reduction factor of 10,000)","(+) ((+) means that more than 99.99% of all viruses were inactivated; this is equivalent to a reduction factor of 10,000)","(+) ((+) means that more than 99.99% of all viruses were inactivated; this is equivalent to a reduction factor of 10,000)","(+) ((+) means that more than 99.99% of all viruses were inactivated; this is equivalent to a reduction factor of 10,000)","(+) ((+) means that more than 99.99% of all viruses were inactivated; this is equivalent to a reduction factor of 10,000)","(+) ((+) means that more than 99.99% of all viruses were inactivated; this is equivalent to a reduction factor of 10,000)","(+) ((+) means that more than 99.99% of all viruses were inactivated; this is equivalent to a reduction factor of 10,000)","(+) ((+) means that more than 99.99% of all viruses were inactivated; this is equivalent to a reduction factor of 10,000)","(+) ((+) means that more than 99.99% of all viruses were inactivated; this is equivalent to a reduction factor of 10,000)","Virucidal activity MHV-3 [3, 6]: (+) ((+) means that more than 99.99% of all viruses were inactivated; this is equivalent to a reduction factor of 10,000); Virucidal activity MHV-3 [3, 7]: (+) ((+) means that more than 99.99% of all viruses were inactivated; this is equivalent to a reduction factor of 10,000); Virucidal activity MHV-3 ([3]; 1 wt.-percent in water, 1 min): (+) ((+) means that more than 99.99% of all viruses were inactivated; this is equivalent to a reduction factor of 10,000); Virucidal activity MHV-3 ([3]; 1 wt.-percent in water, 10 min): (+) ((+) means that more than 99.99% of all viruses were inactivated; this is equivalent to a reduction factor of 10,000); Virucidal activity MHV-3 ([3]; 10 wt.-percent in water, 1 min): (+) ((+) means that more than 99.99% of all viruses were inactivated; this is equivalent to a reduction factor of 10,000); Virucidal activity MHV-3 [3, 8]: (+) ((+) means that more than 99.99% of all viruses were inactivated; this is equivalent to a reduction factor of 10,000); Virucidal activity HV [4, 6]: (+) ((+) means that more than 99.99% of all viruses were inactivated; this is equivalent to a reduction factor of 10,000); Virucidal activity HV [4, 7]: (+) ((+) means that more than 99.99% of all viruses were inactivated; this is equivalent to a reduction factor of 10,000); Virucidal activity HV ([4]; 1 wt.-percent in water, 1 min): (+) ((+) means that more than 99.99% of all viruses were inactivated; this is equivalent to a reduction factor of 10,000); Virucidal activity HV ([4]; 1 wt.-percent in water, 10 min): (+) ((+) means that more than 99.99% of all viruses were inactivated; this is equivalent to a reduction factor of 10,000); Virucidal activity HV ([4]; 10 wt.-percent in water, 1 min): (+) ((+) means that more than 99.99% of all viruses were inactivated; this is equivalent to a reduction factor of 10,000); Virucidal activity HV [4, 8]: (+) ((+) means that more than 99.99% of all viruses were inactivated; this is equivalent to a reduction factor of 10,000)"
"CCCCCCCCC(O)CO (centres unmarked) [1,2-decanediol]",,,,,,,,,"(+) ((+) means that more than 99.99% of all viruses were inactivated; this is equivalent to a reduction factor of 10,000)","(+) ((+) means that more than 99.99% of all viruses were inactivated; this is equivalent to a reduction factor of 10,000)","(+) ((+) means that more than 99.99% of all viruses were inactivated; this is equivalent to a reduction factor of 10,000)","(+) ((+) means that more than 99.99% of all viruses were inactivated; this is equivalent to a reduction factor of 10,000)","(+) ((+) means that more than 99.99% of all viruses were inactivated; this is equivalent to a reduction factor of 10,000)","(+) ((+) means that more than 99.99% of all viruses were inactivated; this is equivalent to a reduction factor of 10,000)","(+) ((+) means that more than 99.99% of all viruses were inactivated; this is equivalent to a reduction factor of 10,000)","(+) ((+) means that more than 99.99% of all viruses were inactivated; this is equivalent to a reduction factor of 10,000)","(+) ((+) means that more than 99.99% of all viruses were inactivated; this is equivalent to a reduction factor of 10,000)","(+) ((+) means that more than 99.99% of all viruses were inactivated; this is equivalent to a reduction factor of 10,000)","(+) ((+) means that more than 99.99% of all viruses were inactivated; this is equivalent to a reduction factor of 10,000)","(+) ((+) means that more than 99.99% of all viruses were inactivated; this is equivalent to a reduction factor of 10,000)","Virucidal activity MHV-3 [3, 6]: (+) ((+) means that more than 99.99% of all viruses were inactivated; this is equivalent to a reduction factor of 10,000); Virucidal activity MHV-3 [3, 7]: (+) ((+) means that more than 99.99% of all viruses were inactivated; this is equivalent to a reduction factor of 10,000); Virucidal activity MHV-3 ([3]; 1 wt.-percent in water, 1 min): (+) ((+) means that more than 99.99% of all viruses were inactivated; this is equivalent to a reduction factor of 10,000); Virucidal activity MHV-3 ([3]; 1 wt.-percent in water, 10 min): (+) ((+) means that more than 99.99% of all viruses were inactivated; this is equivalent to a reduction factor of 10,000); Virucidal activity MHV-3 ([3]; 10 wt.-percent in water, 1 min): (+) ((+) means that more than 99.99% of all viruses were inactivated; this is equivalent to a reduction factor of 10,000); Virucidal activity MHV-3 [3, 8]: (+) ((+) means that more than 99.99% of all viruses were inactivated; this is equivalent to a reduction factor of 10,000); Virucidal activity HV [4, 6]: (+) ((+) means that more than 99.99% of all viruses were inactivated; this is equivalent to a reduction factor of 10,000); Virucidal activity HV [4, 7]: (+) ((+) means that more than 99.99% of all viruses were inactivated; this is equivalent to a reduction factor of 10,000); Virucidal activity HV ([4]; 1 wt.-percent in water, 1 min): (+) ((+) means that more than 99.99% of all viruses were inactivated; this is equivalent to a reduction factor of 10,000); Virucidal activity HV ([4]; 1 wt.-percent in water, 10 min): (+) ((+) means that more than 99.99% of all viruses were inactivated; this is equivalent to a reduction factor of 10,000); Virucidal activity HV ([4]; 10 wt.-percent in water, 1 min): (+) ((+) means that more than 99.99% of all viruses were inactivated; this is equivalent to a reduction factor of 10,000); Virucidal activity HV [4, 8]: (+) ((+) means that more than 99.99% of all viruses were inactivated; this is equivalent to a reduction factor of 10,000)"
"CCCCCCC(O)CO (centres unmarked) [1,2-octanediol]",,,,,"(+) ((+) means that more than 99.99% of all viruses were inactivated; this is equivalent to a reduction factor of 10,000)","(+) ((+) means that more than 99.99% of all viruses were inactivated; this is equivalent to a reduction factor of 10,000)","(+) ((+) means that more than 99.99% of all viruses were inactivated; this is equivalent to a reduction factor of 10,000)","(+) ((+) means that more than 99.99% of all viruses were inactivated; this is equivalent to a reduction factor of 10,000)",,,,,,,,,,,,,
